According to patent publication US20260144875A1, “COMPOSITIONS AND METHODS FOR CROSSLINKING STRUCTURAL PROTEINS” (ADS Therapeutics LLC, priority 2022, published 2026):
Values after ≈ are worked out from the molar mass of the structure shown.

Experiments:
[1] = Solubility of RTB in MCT, F6H8 or mixed solvents, HPLC; assay type: physicochemical; conditions: 25° C.
Experimental: Solubility of riboflavin tetrabutyrate (RTB) was tested in medium chain triglycerides (MCT), F6H8, or mixtures of MCT/F6H8 at room temperature, and in F6H8 at 100° C. Solubility was analyzed as in Example 1a.

[2] = Saturated aqueous solubility of RTB in PBS with or without HP-β-CD, HPLC; assay type: physicochemical
Experimental: Solubility of riboflavin tetrabutyrate (RTB) was tested in PBS solution, with or without 10% hydroxypropyl-beta-cyclodextrin (HP-β-CD) as solubilizer, at varying pH. For each formulation, 5 mg of RTB was added to 5 mL of pH-adjusted PBS containing 10% HP-β-CD at 25° C., and mixed well. Solubility was analyzed as in Example 1a.

[3] = Impurities from riboflavin tetrabutyrate in aqueous solution; assay type: physicochemical; conditions: PBS
Experimental: The impurities present in PBS solutions, with or without 10% hydroxy-propyl-beta-cyclodextrin (HP-β-CD) as solubilizer, at varying pH, with riboflavin tetrabutyrate (RTB) was investigated. Using similar sample analysis methods described in Examples 1a-1c, the impurities were determined.

[4] = Impurities from riboflavin tetrabutyrate in organic solvents; assay type: physicochemical; conditions: 25° C.; for Impur. 0 hr / Impur. 1 Month / Impur. 14 Days: RTB
Experimental: The impurities present in MCT, F6H8, or combinations, with riboflavin tetrabutyrate (RTB), at 25° C. was investigated. Using similar sample analysis methods described in Examples 1a-1c, the impurities were determined.

porcine corneas = assay: Ex vivo RTB-UVA crosslinking, static stress-strain, without de-epithelialization; conditions: intact porcine eyes, corneas not de-epithelialized; RTB formulations in MCT or F6H8; UVA radiation
Experimental: Starting 5 minutes before the treatment, 0.1% riboflavin tetrabutyrate (RTB) photosensitizer solution (10 mg riboflavin tetrabutyrate in 10 mL MCT or F6H8 or a combination thereof) is dropped on the treated strips and MCT or F6H8 or combination solution is dropped on the control strips at 5-minute intervals. Ultraviolet A irradiation (370 nm) is applied using 2 double UVA diodes (Roithner Lasertechnik) with an irradiance of 3 mW/cm2 at a distance of 1.0 cm from the cornea for 30 minutes. This is equal to a dose of 5.4 J/cm^2. The parameters of exposure are chosen according to the treatment procedure used in keratoconus patients. Three 1.3 V accumulators are used as a power generator. […]
The porcine corneal strips are clamped horizontally at a distance of 8.0 mm between the jaws of a commercially available microcomputer-controlled biomaterial tester (Minimat, Rheometric Scientific GmbH. To include the physiological stress range, a prestress of 5×10^3 Pa (1 Pa=1 N/m2) is used, which requires a force of 20 mN in porcine corneas. The strain is then increased linearly with a velocity of 1.5 mm min-1, and the stress is measured up to 2×10^5 Pa. The stress-strain values are fitted by an exponential function σ=A exp (BX) using the SPSS-calculation program (SPSS GmbH Software, Munich). […]

[5] = Sample YA1, HP-β-CD 10%, pH 5.0
[6] = Sample YA2, HP-β-CD 10%, pH 6.0
[7] = Sample YA3, HP-β-CD 10%, pH 7.0
[8] = Sample YA4, without HP-β-CD, pH 5.0
[9] = Sample YA5, without HP-β-CD, pH 6.0
[10] = Sample YA6, without HP-β-CD, pH 7.0
[11] = Sample YB1, 0.2%, MCT 100%, F6H8 0%
[12] = Sample YB2, 0.1%, MCT 70%, F6H8 30%
[13] = Sample YB3, 0.1%, MCT 50%, F6H8 50%

**Q.** With CCCC(=O)OC[C@@H](OC(=O)CCC)[C@@H](OC(=O)CCC)[C@H](Cn1c2nc(=O)[nH]c(=O)c-2nc2cc(C)c(C)cc21)OC(=O)CCC [RTB, (2R,3S,4S)-5-(7,8-dimethyl-2,4-dioxo-3,4-dihydrobenzo[g]pteridin-10(2H)-yl) pentane-1,2,3,4-tetrayl tetrabutyrate] as the compound, how does the Solubility ([1]; Sample B2, MCT 100%, F6H8 0%) read?
**A.** 3133 ng/mL (≈ 4.77 µM)

**Q.** What about the Solubility ([1]; Sample B3, MCT 20%, F6H8 80%) of the same compound?
**A.** 316 ng/mL (≈ 0.481 µM)

**Q.** And the Solubility ([1]; Sample B4, MCT 50%, F6H8 50%)?
**A.** 1124 ng/mL (≈ 1.71 µM)

**Q.** And the Solubility ([1]; Sample B5, MCT 70%, F6H8 30%)?
**A.** 1582 ng/mL (≈ 2.41 µM)

**Q.** What about the Solubility ([2]; Sample C1, 25° C., HP-β-CD 10%, pH 5.0) of the same compound?
**A.** 8 ng/mL (≈ 0.0122 µM)

**Q.** And the Solubility ([2]; Sample C2, 25° C., HP-β-CD 10%, pH 5.5)?
**A.** 3 ng/mL (≈ 0.00457 µM)

**Q.** And the Solubility ([2]; Sample C3, 25° C., HP-β-CD 10%, pH 6.0)?
**A.** 4 ng/mL (≈ 0.00609 µM)

**Q.** What about the Solubility ([2]; Sample C4, 25° C., without HP-β-CD, pH 5.0) of the same compound?
**A.** 8 ng/mL (≈ 0.0122 µM)

**Q.** And the Solubility ([2]; Sample C5, 25° C., without HP-β-CD, pH 5.5)?
**A.** 1 ng/mL (≈ 0.00152 µM)

**Q.** What about the Solubility ([2]; Sample C6, 25° C., without HP-β-CD, pH 6.0) of the same compound?
**A.** 2 ng/mL (≈ 0.00305 µM)

**Q.** And the “Other Impurities” value [3, 5]?
**A.** 2.94%

**Q.** What about the Riboflavin [3, 5] of the same compound?
**A.** 0%

**Q.** And the “Riboflavin Tetrabutyrate” value [3, 5]?
**A.** 96.28%

**Q.** What about the “Other Impurities” value [3, 6] of the same compound?
**A.** 10.65%

**Q.** And the Riboflavin [3, 6]?
**A.** 2.45%

**Q.** And the “Riboflavin Tetrabutyrate” value [3, 6]?
**A.** 87.2%

**Q.** And the “Other Impurities” value [3, 7]?
**A.** 9.39%

**Q.** What about the Riboflavin [3, 7] of the same compound?
**A.** 2.03%

**Q.** What about the “Riboflavin Tetrabutyrate” value [3, 7] of the same compound?
**A.** 88.58%

**Q.** What about the “Other Impurities” value [3, 8] of the same compound?
**A.** 22.54%

**Q.** And the Riboflavin [3, 8]?
**A.** 7.24%

**Q.** What about the “Riboflavin Tetrabutyrate” value [3, 8] of the same compound?
**A.** 70.22%

**Q.** What about the “Other Impurities” value [3, 9] of the same compound?
**A.** 20.58%

**Q.** And the Riboflavin [3, 9]?
**A.** 7.52%

**Q.** What about the “Riboflavin Tetrabutyrate” value [3, 9] of the same compound?
**A.** 71.90%

**Q.** What about the “Other Impurities” value [3, 10] of the same compound?
**A.** 19.8%

**Q.** And the Riboflavin [3, 10]?
**A.** 8.92%

**Q.** What about the “Riboflavin Tetrabutyrate” value [3, 10] of the same compound?
**A.** 71.30%

**Q.** And the “RTB 0 hr” value [4, 11]?
**A.** 98.76%

**Q.** What about the “RTB 1 Month” value [4, 11] of the same compound?
**A.** 98.71%

**Q.** And the “RTB 14 Days” value [4, 11]?
**A.** 98.76%

**Q.** And the “Impur. 0 hr” value [4, 11]?
**A.** 1.16%

**Q.** What about the “Impur. 1 Month” value [4, 11] of the same compound?
**A.** 1.15%

**Q.** What about the “Impur. 14 Days” value [4, 11] of the same compound?
**A.** 1.16%

**Q.** What about the “RTB 0 hr” value [4, 12] of the same compound?
**A.** 98.85%

**Q.** And the “RTB 1 Month” value [4, 12]?
**A.** 99.05%

**Q.** And the “RTB 14 Days” value [4, 12]?
**A.** 98.94%

**Q.** What about the “Impur. 0 hr” value [4, 12] of the same compound?
**A.** 1.14%

**Q.** What about the “Impur. 1 Month” value [4, 12] of the same compound?
**A.** 0.95%

**Q.** What about the “Impur. 14 Days” value [4, 12] of the same compound?
**A.** 1.06%

**Q.** What about the “RTB 0 hr” value [4, 13] of the same compound?
**A.** 98.87%

**Q.** What about the “RTB 1 Month” value [4, 13] of the same compound?
**A.** 98.99%

**Q.** And the “RTB 14 Days” value [4, 13]?
**A.** 98.92%

**Q.** And the “Impur. 0 hr” value [4, 13]?
**A.** 1.13%

**Q.** And the “Impur. 1 Month” value [4, 13]?
**A.** 1.02%

**Q.** What about the “Impur. 14 Days” value [4, 13] of the same compound?
**A.** 1.07%

**Q.** And the “stress using strain, treated vs untreated corneas” value (porcine corneas)?
**A.** greater in the treated corneas
